According to US20230416232A1, “PYRIMIDINE COMPOUNDS, COMPOSITIONS, AND MEDICINAL APPLICATIONS THEREOF” (Blueprint Medicines Corporation, priority 2020, published 2023):

What was measured:
Format in all cases: cell-based
[1] = target: EGFR (H773insNPH) expressing Ba/F3 stable cell line (Homo sapiens, UniProt P00533, DUP771-773, cells depend on it); assay: Cellular proliferation (Alamar Blue) assay, EGFR (H773insNPH) Ba/F3; conditions: 72 hr, read-out: NPH IC50
Procedure: Cell line details: • 1. EGFR(D770_N771insSVD) expressing Ba/F3 stable cell line • 2. EGFR (A767_dupASV) expressing Ba/F3 stable cell line • 3. A431 cells • 4. EGFR (H773insNPH) expressing Ba/F3 stable cell line • 5. HER2 (A775_G776insYVMA) expressing Ba/F3 stable cell line
• 1. Seed cells at 5000 for A431 and 15,000 cells for Ba/F3 in 100 μL/well in complete media (for A431: DMEM with 10% FBS and for Ba/F3 cells: RPMI with 10% FBS) in 96-well tissue culture plate. Leave outer wells without cells for background measurements. Incubate at 37 degree Celsius in 5% CO2 humidified incubator for 16-18 hours. • 2. Add 0.025 ml of 5X concentration compound dilution or DMSO control. Final compound concentration range is 10-0.0005 μM prepared in 3-fold serial dilutions. Incubate for 72 hr at 37 degree Celsius in 5% CO2 humidified incubator. • 3. Add 0.0125 ml Alamar Blue™ reagent to each well with multi-channel pipette and tap gently on each side of the plate to mix. Incubate for 3 hours at 37 degree Celsius in 5% CO2 humidified incubator. • 4. […] Data analysis was performed using XLfit 5.5.0.5.

[2] = target: EGFR (A767_dupASV) expressing Ba/F3 stable cell line (Homo sapiens, UniProt P00533, DUP767-769, cells depend on it); assay: Cellular proliferation (Alamar Blue) assay, EGFR (A767_dupASV) Ba/F3; conditions: 72 hr, read-out: A767 IC50
Outline: (§1)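 Compound treatment lasted 72 h at 37 °C across a final 10-0.0005 μM range in 3-fold steps; cell growth was measured with Alamar Blue (3 h). Ba/F3 seeded at 15,000 and A431 at 5000 cells/well.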

A431 cells = assay: Cellular proliferation (Alamar Blue) assay, A431 cells; conditions: Homo sapiens, A-431, 72 h, A431 cells; 72 hr; Alamar Blue; read-out: A431 IC50
Outline: as §1

[3] = target: EGFR(D770_N771insSVD) expressing Ba/F3 stable cell line (Homo sapiens, UniProt P00533, DUP768-770, cells depend on it); assay: Cellular proliferation (Alamar Blue) assay, EGFR(D770_N771insSVD) Ba/F3; conditions: 72 hr, read-out: D770 IC50
Outline: as §1

[4] = target: HER2 (A775_G776insYVMA) expressing Ba/F3 stable cell line (Homo sapiens, UniProt P04626, DUP772-775, cells depend on it); assay: Cellular proliferation (Alamar Blue) assay, HER2 (A775_G776insYVMA) Ba/F3; conditions: HER2 (A775_G776insYVMA) Ba/F3 cells; 72 hr; Alamar Blue; read-out: YVMA IC50
Outline: as §1

Sequence of HER2 (A775_G776insYVMA) expressing Ba/F3 stable cell line (P04626 with tags, fused parts or gaps DUP772-775): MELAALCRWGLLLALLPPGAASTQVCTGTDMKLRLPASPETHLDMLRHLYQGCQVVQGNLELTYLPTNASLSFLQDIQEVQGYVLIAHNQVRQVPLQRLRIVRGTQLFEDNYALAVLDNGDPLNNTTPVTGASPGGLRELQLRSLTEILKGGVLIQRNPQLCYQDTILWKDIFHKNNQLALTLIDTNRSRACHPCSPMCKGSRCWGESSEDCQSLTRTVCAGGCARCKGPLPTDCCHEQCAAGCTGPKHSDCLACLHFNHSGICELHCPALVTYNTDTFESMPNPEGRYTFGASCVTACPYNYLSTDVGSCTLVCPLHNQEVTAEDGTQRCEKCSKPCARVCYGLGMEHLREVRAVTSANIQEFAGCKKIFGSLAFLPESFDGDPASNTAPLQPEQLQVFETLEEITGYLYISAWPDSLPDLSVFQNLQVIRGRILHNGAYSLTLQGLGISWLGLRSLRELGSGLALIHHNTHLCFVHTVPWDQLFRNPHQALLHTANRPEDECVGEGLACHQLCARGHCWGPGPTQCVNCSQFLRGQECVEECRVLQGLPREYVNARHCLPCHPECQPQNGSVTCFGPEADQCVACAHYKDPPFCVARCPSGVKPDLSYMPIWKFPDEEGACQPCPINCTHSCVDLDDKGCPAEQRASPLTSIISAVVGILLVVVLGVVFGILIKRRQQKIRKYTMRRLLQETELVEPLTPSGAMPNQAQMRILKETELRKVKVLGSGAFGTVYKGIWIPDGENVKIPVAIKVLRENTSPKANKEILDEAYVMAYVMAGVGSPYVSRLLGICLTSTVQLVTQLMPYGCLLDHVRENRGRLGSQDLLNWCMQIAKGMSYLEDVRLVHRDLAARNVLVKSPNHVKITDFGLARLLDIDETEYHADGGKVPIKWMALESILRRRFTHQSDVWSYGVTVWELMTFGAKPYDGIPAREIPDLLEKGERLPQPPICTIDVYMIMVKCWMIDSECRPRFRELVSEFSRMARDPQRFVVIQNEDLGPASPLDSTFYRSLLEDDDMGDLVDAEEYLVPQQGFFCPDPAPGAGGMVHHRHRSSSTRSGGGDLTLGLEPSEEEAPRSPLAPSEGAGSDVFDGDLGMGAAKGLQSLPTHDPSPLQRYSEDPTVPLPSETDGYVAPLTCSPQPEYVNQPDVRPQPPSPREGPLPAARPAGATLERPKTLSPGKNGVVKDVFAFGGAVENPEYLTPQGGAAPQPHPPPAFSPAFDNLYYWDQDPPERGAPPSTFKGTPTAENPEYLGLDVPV
Sequence of EGFR (A767_dupASV) expressing Ba/F3 stable cell line (P00533 with tags, fused parts or gaps DUP767-769): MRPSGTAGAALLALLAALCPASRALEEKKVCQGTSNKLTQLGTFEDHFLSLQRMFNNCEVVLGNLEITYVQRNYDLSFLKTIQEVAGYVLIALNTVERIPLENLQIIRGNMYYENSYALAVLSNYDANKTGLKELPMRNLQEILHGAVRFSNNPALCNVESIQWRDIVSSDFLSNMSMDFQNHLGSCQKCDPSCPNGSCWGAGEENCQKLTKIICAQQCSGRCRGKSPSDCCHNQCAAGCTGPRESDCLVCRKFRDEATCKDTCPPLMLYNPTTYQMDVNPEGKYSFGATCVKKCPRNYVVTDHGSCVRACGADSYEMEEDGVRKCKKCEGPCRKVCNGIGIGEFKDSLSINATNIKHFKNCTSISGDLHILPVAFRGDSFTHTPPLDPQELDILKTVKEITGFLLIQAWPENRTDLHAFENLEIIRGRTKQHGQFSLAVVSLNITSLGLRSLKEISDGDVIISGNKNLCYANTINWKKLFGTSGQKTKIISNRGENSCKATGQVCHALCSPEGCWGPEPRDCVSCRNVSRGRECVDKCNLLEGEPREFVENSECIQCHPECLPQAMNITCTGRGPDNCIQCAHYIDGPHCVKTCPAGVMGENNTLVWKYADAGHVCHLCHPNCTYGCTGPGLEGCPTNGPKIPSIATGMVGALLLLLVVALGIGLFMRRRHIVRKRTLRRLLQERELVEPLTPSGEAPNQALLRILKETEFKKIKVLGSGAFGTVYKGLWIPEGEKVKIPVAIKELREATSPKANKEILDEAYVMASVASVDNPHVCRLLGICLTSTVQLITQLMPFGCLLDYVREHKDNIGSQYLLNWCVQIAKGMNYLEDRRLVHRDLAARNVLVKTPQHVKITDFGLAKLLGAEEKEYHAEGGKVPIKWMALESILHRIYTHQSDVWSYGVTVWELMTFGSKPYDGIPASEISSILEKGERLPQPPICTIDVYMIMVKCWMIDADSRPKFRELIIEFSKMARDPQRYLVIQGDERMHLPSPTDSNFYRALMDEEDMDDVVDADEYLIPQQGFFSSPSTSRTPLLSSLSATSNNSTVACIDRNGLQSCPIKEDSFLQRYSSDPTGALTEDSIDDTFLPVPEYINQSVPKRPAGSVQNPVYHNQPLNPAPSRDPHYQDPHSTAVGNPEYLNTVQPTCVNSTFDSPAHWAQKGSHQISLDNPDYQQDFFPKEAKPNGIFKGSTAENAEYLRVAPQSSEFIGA
Sequence of EGFR(D770_N771insSVD) expressing Ba/F3 stable cell line (P00533 with tags, fused parts or gaps DUP768-770): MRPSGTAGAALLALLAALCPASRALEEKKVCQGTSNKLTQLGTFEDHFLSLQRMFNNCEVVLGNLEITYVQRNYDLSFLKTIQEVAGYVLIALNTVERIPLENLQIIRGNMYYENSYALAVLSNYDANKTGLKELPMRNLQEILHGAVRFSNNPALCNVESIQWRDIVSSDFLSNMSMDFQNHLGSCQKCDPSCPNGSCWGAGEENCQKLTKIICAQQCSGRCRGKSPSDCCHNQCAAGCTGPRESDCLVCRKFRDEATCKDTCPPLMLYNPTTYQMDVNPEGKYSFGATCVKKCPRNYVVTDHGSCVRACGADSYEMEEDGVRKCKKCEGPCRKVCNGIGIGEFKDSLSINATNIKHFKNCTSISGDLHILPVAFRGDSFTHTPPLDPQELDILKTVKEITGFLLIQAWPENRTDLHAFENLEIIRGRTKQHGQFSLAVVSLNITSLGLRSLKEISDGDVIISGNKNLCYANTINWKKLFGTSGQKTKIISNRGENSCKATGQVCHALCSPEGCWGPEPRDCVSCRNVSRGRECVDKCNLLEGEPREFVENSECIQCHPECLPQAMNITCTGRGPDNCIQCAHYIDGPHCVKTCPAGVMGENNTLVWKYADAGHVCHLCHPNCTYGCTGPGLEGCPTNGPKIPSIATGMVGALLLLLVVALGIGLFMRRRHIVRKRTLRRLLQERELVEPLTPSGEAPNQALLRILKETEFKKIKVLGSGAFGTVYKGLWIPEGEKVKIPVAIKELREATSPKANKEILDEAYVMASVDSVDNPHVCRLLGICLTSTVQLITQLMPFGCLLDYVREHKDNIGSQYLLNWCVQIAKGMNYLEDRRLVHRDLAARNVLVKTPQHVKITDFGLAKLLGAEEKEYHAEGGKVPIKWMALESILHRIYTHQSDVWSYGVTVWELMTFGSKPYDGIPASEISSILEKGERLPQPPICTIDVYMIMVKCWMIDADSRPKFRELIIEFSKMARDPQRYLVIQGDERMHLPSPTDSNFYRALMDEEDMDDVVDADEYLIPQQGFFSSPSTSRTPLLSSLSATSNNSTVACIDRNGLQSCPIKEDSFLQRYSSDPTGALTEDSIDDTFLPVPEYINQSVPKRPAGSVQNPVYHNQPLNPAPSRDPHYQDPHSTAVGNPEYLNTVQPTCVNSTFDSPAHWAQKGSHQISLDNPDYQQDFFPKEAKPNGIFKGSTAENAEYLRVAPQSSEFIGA
Sequence of EGFR (H773insNPH) expressing Ba/F3 stable cell line (P00533 with tags, fused parts or gaps DUP771-773): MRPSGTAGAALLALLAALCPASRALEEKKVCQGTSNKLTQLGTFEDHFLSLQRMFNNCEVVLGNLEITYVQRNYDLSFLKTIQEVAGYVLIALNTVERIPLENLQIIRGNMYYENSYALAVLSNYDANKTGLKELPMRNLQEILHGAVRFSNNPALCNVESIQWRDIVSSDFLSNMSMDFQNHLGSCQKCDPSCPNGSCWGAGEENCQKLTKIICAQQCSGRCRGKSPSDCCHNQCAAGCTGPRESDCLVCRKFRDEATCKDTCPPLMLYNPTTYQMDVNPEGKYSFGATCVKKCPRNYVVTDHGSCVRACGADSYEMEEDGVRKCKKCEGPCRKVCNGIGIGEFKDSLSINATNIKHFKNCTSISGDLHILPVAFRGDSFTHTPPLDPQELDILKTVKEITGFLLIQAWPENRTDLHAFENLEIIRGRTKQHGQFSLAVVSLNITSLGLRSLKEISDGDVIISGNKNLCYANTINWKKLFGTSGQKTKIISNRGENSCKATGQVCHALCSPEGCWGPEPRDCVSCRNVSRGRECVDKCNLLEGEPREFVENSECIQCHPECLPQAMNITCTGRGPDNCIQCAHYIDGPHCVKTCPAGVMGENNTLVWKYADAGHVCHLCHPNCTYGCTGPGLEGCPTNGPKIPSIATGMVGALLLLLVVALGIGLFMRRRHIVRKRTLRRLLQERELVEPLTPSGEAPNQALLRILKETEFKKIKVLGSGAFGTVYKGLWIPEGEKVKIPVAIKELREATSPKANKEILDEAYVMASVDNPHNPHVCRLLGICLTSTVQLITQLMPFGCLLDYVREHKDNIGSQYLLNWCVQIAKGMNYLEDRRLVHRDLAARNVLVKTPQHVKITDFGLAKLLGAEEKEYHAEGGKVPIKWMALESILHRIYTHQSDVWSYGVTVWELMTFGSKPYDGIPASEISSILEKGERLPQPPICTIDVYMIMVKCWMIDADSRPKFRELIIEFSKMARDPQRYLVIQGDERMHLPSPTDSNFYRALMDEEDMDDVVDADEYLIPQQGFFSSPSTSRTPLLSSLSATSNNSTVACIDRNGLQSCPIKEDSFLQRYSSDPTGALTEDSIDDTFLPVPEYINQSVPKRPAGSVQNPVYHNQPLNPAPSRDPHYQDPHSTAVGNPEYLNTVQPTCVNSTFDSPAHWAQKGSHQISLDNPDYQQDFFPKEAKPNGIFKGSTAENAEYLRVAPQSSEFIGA

SMILES: C=CC(=O)Nc1ccc(F)c(Nc2nc(Nc3cnn(C)c3)ncc2-c2ccc(Cl)c(F)c2)c1 [Compound 33, N-(3-((5-(4-chloro-3-fluorophenyl)-2-((1-methyl-1H-pyrazol-4-yl)amino)pyrimidin-4-yl)amino)-4-fluorophenyl)acrylamide]
- GI50 [1]: 0.052 µM
- GI50 [2]: 0.021 µM
- IC50 (A431 cells): 0.035 µM
- GI50 [3]: 0.02 µM
- GI50 [4]: 0.073 µM

SMILES: C=CC(=O)Nc1ccc(F)c(Nc2nc(Nc3cnn(C)c3)ncc2-c2ccc(C(F)(F)F)c(F)c2)c1 [Compound 35, N-(4-fluoro-3-((5-(3-fluoro-4-(trifluoromethyl)phenyl)-2-((1-methyl-1H-pyrazol-4-yl)amino)pyrimidin-4-yl)amino)phenyl)acrylamide]
- GI50 [1]: 0.084 µM
- GI50 [2]: 0.099 µM
- IC50 (A431 cells): 0.045 µM
- GI50 [3]: 0.035 µM
- GI50 [4]: 0.099 µM

SMILES: C=CC(=O)Nc1ccc(F)c(Nc2nc(Nc3cnn(C)c3)ncc2-c2ccc(C(F)F)c(F)c2)c1 [Compound 37, N-(3-((5-(4-(difluoromethyl)-3-fluorophenyl)-2-((1-methyl-1H-pyrazol-4-yl)amino)pyrimidin-4-yl)amino)-4-fluorophenyl)acrylamide]
- GI50 [1]: 0.051 µM
- GI50 [2]: 0.034 µM
- IC50 (A431 cells): 0.051 µM
- GI50 [3]: 0.03 µM
- GI50 [4]: 0.093 µM

SMILES: C=CC(=O)Nc1cccc(Nc2nc(Nc3cnn(C)c3)ncc2-c2cc(F)cc(C(F)F)c2)c1 [Compound 43, N-(3-((5-(3-(difluoromethyl)-5-fluorophenyl)-2-((1-methyl-1H-pyrazol-4-yl)amino)pyrimidin-4-yl)amino)phenyl)acrylamide]
- GI50 [1]: 0.024 µM
- GI50 [2]: 0.041 µM
- IC50 (A431 cells): 0.707 µM
- GI50 [3]: 0.035 µM
- GI50 [4]: 0.084 µM

SMILES: C=CC(=O)Nc1ccc(F)c(Nc2nc(Nc3cnn(C)c3)ncc2-c2cnc(Cl)c(F)c2)c1 [Compound 45, N-(3-((5-(6-chloro-5-fluoropyridin-3-yl)-2-((1-methyl-1H-pyrazol-4-yl)amino)pyrimidin-4-yl)amino)-4-fluorophenyl)acrylamide]
- GI50 [1]: 0.025 µM
- GI50 [2]: 0.01 µM
- IC50 (A431 cells): 0.035 µM
- GI50 [3]: 0.007 µM
- GI50 [4]: 0.016 µM

SMILES: C=CC(=O)Nc1ccc(F)c(Nc2nc(Nc3cnn(C)c3)ncc2-c2cnc(C)c(Cl)c2)c1 [Compound 46, N-(3-((5-(5-chloro-6-methylpyridin-3-yl)-2-((1-methyl-1H-pyrazol-4-yl)amino)pyrimidin-4-yl)amino)-4-fluorophenyl)acrylamide]
- GI50 [1]: 0.03 µM
- GI50 [2]: 0.029 µM
- IC50 (A431 cells): 0.102 µM
- GI50 [3]: 0.017 µM
- GI50 [4]: 0.034 µM

SMILES: C=CC(=O)Nc1ccc(F)c(Nc2nc(Nc3cnn(C)c3)ncc2-c2cnc(F)c(C(F)(F)F)c2)c1 [Compound 47, N-(4-fluoro-3-((5-(6-fluoro-5-(trifluoromethyl)pyridin-3-yl)-2-((1-methyl-1H-pyrazol-4-yl)amino)pyrimidin-4-yl)amino)phenyl)acrylamide]
- GI50 [1]: 0.02 µM
- GI50 [2]: 0.034 µM
- IC50 (A431 cells): 0.046 µM
- GI50 [3]: 0.021 µM
- GI50 [4]: 0.025 µM

SMILES: C=CC(=O)Nc1cccc(Nc2nc(Nc3cnn(C)c3)ncc2-c2ccc(F)c(Cl)c2)c1 [Compound 49, N-(3-((5-(3-chloro-4-fluorophenyl)-2-((1-methyl-1H-pyrazol-4-yl)amino)pyrimidin-4-yl)amino)phenyl)acrylamide]
- GI50 [1]: 0.027 µM
- GI50 [2]: 0.044 µM
- IC50 (A431 cells): 0.246 µM
- GI50 [3]: 0.038 µM
- GI50 [4]: 0.065 µM

SMILES: C=CC(=O)Nc1ccc(F)c(Nc2nc(Nc3cnn(C)c3)ncc2-c2ccc(Cl)c(Cl)c2)c1 [Compound 50, N-(3-((5-(3,4-dichlorophenyl)-2-((1-methyl-1H-pyrazol-4-yl)amino)pyrimidin-4-yl)amino)-4-fluorophenyl)acrylamide]
- GI50 [1]: 0.061 µM
- GI50 [2]: 0.026 µM
- IC50 (A431 cells): 0.07 µM
- GI50 [3]: 0.032 µM
- GI50 [4]: 0.086 µM
